Laboratory results: patent publication US20130231292A1, “Synergistic anti-proliferation activity of TAS-108 with mTOR inhibitors against cancer cells” (priority 2012, published 2013)
“Also recorded” adds a separate entry of the source. One block for each compound: values may come before it.

Key:
Type in all cases: cell-based
[1] = tested on: 60 cancer cell lines of different tissues of origin; test: Non-bias 5x4 checkerboard combination screen of TAS108 with 30 chemotherapeutic agents; design: ES: synergistic effect size: scale not given here; settings: for ES: synergistic effect size: in combination with TAS-108, meta analysis across doses and 60 cell lines
From the text: We used 5×4 factorial (checkerboard) design. The combinations were screened against 60 cancer cell lines of different tissues of origin, including melanoma, ovarian, CNS, renal, lung, breast, colon, prostate, and leukemia cancers, represented by cell lines including LOXIMVI, M14,MDAMB468, HT29, NCIH522, HS578T, RPMI8226, HOP92, HL60, OVCAR8, SR, SKMEL2, PC3, HOP62, HCC2998,786O, U251, OVCAR3, NCIH23, T47D, SF295, MOLT4, HCT15, SF539, BT549, SN12C, KM12, ADRRES, A498, NCIH226, NCIH322M, OVCAR5, MALME, OVCAR4, RXF393, SW620, CCRFCEM, UACC62, ACHN, SKOV3, SF268, EKVX, A549, NCIH460, IGROV1, SNB75, UACC257, UO31, HCT116, TK10, K562, SKMEL28, COLO205, SNB19, MDAMB231, DU145, CAKI1, MDAMB435, and MCF7.
After quantifying the degree of synergy for specified doses of compounds within each individual cell line, we used meta analysis to aggregate those effects across doses and the cell line panel (Table 1).

T47D = test: CellTiter-Glo cell viability assay, single agents, three days; settings: Homo sapiens, 72 h; for Emax: highest dose tested, read-out: Max Inhibition; for GI50: three days, CellTiter-Glo, read-out: GI50
HS578T = test: as above; settings: Homo sapiens, Hs-578T, 72 h, HS578T; for Emax: highest dose tested, read-out: Max Inhibition; for GI50: three days, CellTiter-Glo, read-out: GI50
MDAMB231 = test: as above; settings: Homo sapiens, MDA-MB-231, 72 h; for Emax: MDAMB231, highest dose tested, read-out: Max Inhibition; for GI50: MDAMB231, three days, CellTiter-Glo
BT549 = test: as above; settings: Homo sapiens, BT-549, 72 h; for Emax: BT549, highest dose tested, read-out: Max Inhibition; for GI50: BT549, three days, CellTiter-Glo
MDAMB468 = test: as above; settings: Homo sapiens, MDA-MB-468, 72 h; for Emax: MDAMB468, highest dose tested, read-out: Max Inhibition; for GI50: MDAMB468, three days, CellTiter-Glo
MCF7 = test: as above; settings: Homo sapiens, 72 h; for Emax: MCF7, highest dose tested, read-out: Max Inhibition; for GI50: MCF7, three days, CellTiter-Glo, read-out: GI50

SMILES: CCCCCOC(=O)Nc1nc(=O)n([C@@H]2O[C@H](C)[C@@H](O)[C@H]2O)cc1F [Capecitabine]
- ES: synergistic effect size [1]: −0.001

SMILES: N.N.O=C([O-])C1(C(=O)[O-])CCC1.[Pt+2] [Carboplatin]
- ES: synergistic effect size [1]: −0.004

SMILES: Nc1ccn([C@@H]2O[C@H](CO)[C@@H](O)[C@@H]2O)c(=O)n1 [Cytarabine]
- ES: synergistic effect size [1]: −0.008

- GI50 (T47D): 0.86 µM
- GI50 (MDAMB231): 0.0099 µM
- GI50 (BT549): 0.058 µM
- GI50 (MDAMB468): 16 µM
SMILES: Cc1nc(Nc2ncc(C(=O)Nc3c(C)cccc3Cl)s2)cc(N2CCN(CCO)CC2)n1 [Dasatinib]
- Emax (T47D): 37%
- Emax (HS578T): 79%
- GI50 (HS578T): 0.015 µM
- Emax (MDAMB231): 82%
- Emax (BT549): 51%
- Emax (MDAMB468): 40%

SMILES: CC(=O)O[C@@]12CO[C@@H]1C[C@H](O)[C@@]1(C)C(=O)[C@H](O)C3=C(C)[C@@H](OC(=O)[C@H](O)[C@@H](NC(=O)OC(C)(C)C)c4ccccc4)C[C@@](O)([C@@H](OC(=O)c4ccccc4)[C@H]21)C3(C)C [Docetaxel]
- synergy with TAS-108 across the cell line panel (in words) ([1]; in combination with TAS-108): synergy was consistently found; also recorded: significant synergy
- ES: synergistic effect size [1]: 0.23

- GI50 (MDAMB468): 76 µM
SMILES: C#Cc1cccc(Nc2ncnc3cc(OCCOC)c(OCCOC)cc23)c1 [Erlotinib]
- Emax (MDAMB468): 34%

- GI50 (MCF7): 1 µM
SMILES: C[C@]12CC[C@@H]3c4ccc(O)cc4C[C@@H](CCCCCCCCC[S+]([O-])CCCC(F)(F)C(F)(F)F)[C@H]3[C@@H]1CC[C@@H]2O (stereo partly drawn) [Faslodex]
- Emax (T47D): 24%
- Emax (MCF7): 30%

SMILES: O=c1[nH]c(=O)n([C@H]2C[C@H](O)[C@@H](CO)O2)cc1F [Floxuridine]
- ES: synergistic effect size [1]: −0.016

SMILES: Nc1nc(F)nc2c1ncn2[C@@H]1O[C@H](CO)[C@@H](O)[C@@H]1O [FluroaraA]
- ES: synergistic effect size [1]: 0.008

SMILES: Nc1ccn([C@@H]2O[C@H](CO)[C@@H](O)C2(F)F)c(=O)n1 [Gemcitabine]
- ES: synergistic effect size [1]: −0.007

- GI50 (MDAMB231): 26 µM
- GI50 (BT549): 29 µM
SMILES: Cc1ccc(NC(=O)c2ccc(CN3CCN(C)CC3)cc2)cc1Nc1nccc(-c2cccnc2)n1 [Imatinib]
- Emax (MDAMB231): 91%

- GI50 (T47D): 5.8 µM
- GI50 (MDAMB231): 14 µM
- GI50 (MDAMB468): 1.9 µM
SMILES: CS(=O)(=O)CCNCc1ccc(-c2ccc3ncnc(Nc4ccc(OCc5cccc(F)c5)c(Cl)c4)c3c2)o1 [Lapatinib]
- Emax (T47D): 31%
- Emax (MDAMB231): 98%
- Emax (MDAMB468): 99%

- GI50 (MDAMB231): 14 µM
SMILES: Cc1cn(-c2cc(NC(=O)c3ccc(C)c(Nc4nccc(-c5cccnc5)n4)c3)cc(C(F)(F)F)c2)cn1 [Nilotinib]

- GI50 (MCF7): 25 µM
SMILES: O=C(c1ccc(OCCN2CCCCC2)cc1)c1c(-c2ccc(O)cc2)sc2cc(O)ccc12 [Raloxifene]
- Emax (MCF7): 27%

- GI50 (T47D): 0.047 µM
- GI50 (MCF7): 0.054 µM
- GI50 (MDAMB231): 11 µM
- GI50 (BT549): 0.22 µM
- GI50 (MDAMB468): 0.063 µM
SMILES: CO[C@H]1C[C@@H]2CC[C@@H](C)[C@@](O)(O2)C(=O)C(=O)N2CCCC[C@H]2C(=O)O[C@H]([C@H](C)C[C@@H]2CC[C@@H](O)[C@H](OC)C2)CC(=O)[C@H](C)/C=C(\C)[C@@H](O)[C@@H](OC)C(=O)[C@H](C)C[C@H](C)/C=C/C=C/C=C/1C [Rapamycin]
- Emax (T47D): 45%
- Emax (HS578T): 41%
- GI50 (HS578T): 1 µM
- Emax (MCF7): 55%
- Emax (MDAMB231): 95%
- Emax (BT549): 99%
- Emax (MDAMB468): 100%

SMILES: CCc1c2c(nc3ccc(O)cc13)-c1cc3c(c(=O)n1C2)COC(=O)[C@]3(O)CC [SN38]
- ES: synergistic effect size [1]: 0.022

- GI50 (MDAMB231): 5.6 µM
- GI50 (BT549): 4.2 µM
- GI50 (MDAMB468): 21 µM
SMILES: CCN(CC)CCNC(=O)c1c(C)[nH]c(/C=C2\C(=O)Nc3ccc(F)cc32)c1C [Sunitinib]
- Emax (HS578T): 65%
- GI50 (HS578T): 6.9 µM
- Emax (MDAMB231): 99%
- Emax (BT549): 100%

SMILES: CC[C@]1(O)C[C@H]2CN(CCc3c([nH]c4ccccc34)[C@@](C(=O)OC)(c3cc4c(cc3OC)N(C=O)[C@H]3[C@@](O)(C(=O)OC)[C@H](OC(C)=O)[C@]5(CC)C=CCN6CC[C@]43[C@@H]65)C2)C1 [Vincristine]
- ES: synergistic effect size [1]: 0.023

SMILES: O=C(CCCCCCC(=O)Nc1ccccc1)NO [Vorinostat]
- ES: synergistic effect size [1]: 0.004
